Reference: US4740499A, “Method of enhancing the bioactivity of atrial peptides” (Monsanto Company, priority 1986, dated 1988)
Where a SMILES comes first, the peptide text is derived from it. Bridges are numbered along the chain shown (N, C = ends).

Columns and labels:
[1] = test system: rabbit kidney brush border membranes (RBBM); test: physchem; assay type: biochemical; settings: for Effect of inhibitor on atrial peptide bioactivity during incubation with renal brush border membranes: nanomolar (low) concentrations of inhibitor
Method: (§1) The kelatorphan was prepared according to the method described for compound 13 by Fournie-Saluski et al., J. Med. Chem. 28, 1158-1169 (1985). The following procedure was performed at 4° C. Rabbit kidneys were obtained fresh and were perfused with buffer A (containing 5 mM Tris, pH 7.5, 0.25 M sucrose, 3 mM MgCl2 and 1 mM EDTA) to remove the blood. (EDTA=ethylenediaminetetraacetic acid.) The kidneys were minced, homogenized in 5 volumes of ice-cold buffer A with a Brinkmann Polytron homogenizer and filtered through two layers of cheesecloth. The filtrate was centrifuged at 5,000×g for 20 min, the pellet was discarded and the supernatant was centrifuged at 15,000×g for 20 min. The supernatant was retained and then centrifuged at 100,000×g for 90 min. The pellet was resuspended in 50 mM Tris, pH 7.5, and the suspension was centrifuged at 100,000×g for 90 min. The washed pellet was resuspended in 50 mM Tris, pH 7.5, to give a final protein concentration of 4 mg/ml using the protein assay of Bradford, Anal. Biochem. 72, 248-254 (1976). The membrane preparation was assayed for aminopeptidase and alkaline phosphatase activities which are the marker enzymes for the kidney brush border. See Inui et al., Biochim. Biophys. Acta 647, 150-154 (1981). The final membrane preparation was enriched 8-fold in alkaline phosphatase activity, and 11-fold in aminopeptidase activity, compared to the homogenate. Renal brush border membranes (10-20 μg) were preincubated for 15 min at 25° C. in a solution containing the inhibitor and 50 mM Tris, pH 7.5. […] Incubations were for 60 min at 25° C. and were terminated by removing the membranes by filtration using Gelman GA-6 filters. The filtrates were immediately frozen on dry ice and were stable for 1 week when stored at -80° C. Samples containing the peptide degradation products were resolved by C18 reversed phase high pressure liquid chromatography (HPLC). The frozen samples were thawed immediately before injection onto a Vydac C18 column (4.6 mm I.D.×25 cm; 5 micron/300 Å) equilibrated with water containing 0.05% trifluoracetic acid (TFA). Peptide fragments and starting material were separated on a linear gradient of 0-35% acetonitrile also containing 0.05% TFA. Both the gradient and the flow rate (1 ml/min) were maintained by a Waters HPLC system consisting of two Model 510 pumps connected to an Automated Gradient Controller. Column effluent was monitored at 220 nm by a Waters Model 481 spectrophotometer, and the amount of atrial peptide material and peptide fragments were measured via a Hewlett-Packard Model […] integrator. […] Therefore, in those cases where the N-terminal serine was removed, the total amount of biologically active material remaining at the end of the incubation was taken as the % starting material remaining plus % des […] -AP-I or des […] -AP-III (as appropriate), as calculated from the peak areas of the individual peptides on HPLC.

physchem = assay type: biochemical, rabbit; settings: pH 7.5, Peak area as % Initial AP: AP
Method: as §1

[2] = Plasma AP-III levels (radioimmunoassay) in rats, first test: constant AP-III infusion, varied thiorphan dose; assay type: in vivo, rat; settings: male, Sprague-Dawley, rat, in vivo, iv
Method: (§2) Plasma levels of atriopeptin III (AP-III) were tested in rats in which the AP-III was infused intravenously both with and without contemporaneous administration of thiorphan.
(§3) Male Sprague-Dawley rats, 240-310 g, were used for all tests. The rats were housed in the test facilities for at least 6 days before they were used.
(§4) Cannulas were made of PE-10 (polyethylene) tubing inserted and glued into a piece of PE-50 tubing. Rats were anesthetized with pentobarbital (50 mg/kg i.p.) and had cannulas inserted into the left femoral vein and artery. Both were inserted four cm into the vessels and tied securely. They were then tunnelled under the skin and brought out between the rat's shoulder blades and then cut so that only 1-2 cm was externalized. Cannulas were glued in place using Superglue and filled with saline containing 100 units heparin/ml. Rats were allowed to wake up and then housed individually with food and water ad libitum.
(§5) Two days after surgery, the rats were weighed and put into restraining cages that allowed limited movement. […] Blood was collected from the femoral artery and replaced with saline containing 10 units heparin/ml. In most tests, 0.3 ml blood was taken, except that when basal AP-III levels were measured 0.4 ml blood was withdrawn. Blood was immediately centrifuged in a microcentrifuge for one minute and plasma was frozen in plastic tubes placed on dry ice. Samples were kept in a -80° C. freezer until they were analyzed.
(§6) Thiorphan was dissolved in a minimal amount of 0.1 N NaOH to produce the sodium salt. The solution was immediately neutralized using 0.5 N HCl and diluted to a final concentration with 0.9% saline.
After taking the second sample, thiorphan was given as a bolus injection into the femoral artery and the line was flushed with 0.2 ml saline. The doses of thiorphan were 1,3,10 and 30 mg/kg; one set of rats received only a saline bolus as a control. Blood was taken 10,20,30 and 60 minutes after the injection of thiorphan. AP-III was infused during the entire experiment for a total of 90 minutes.
(§7) Plasma AP-III levels were analyzed by radioimmunoassay using a second antibody to separate free and bound AP-III. The label was ^125 I-AP-III that was purified by HPLC after iodination. Conditions were set so that 35-40% of the total counts were precipitated. The incubation medium contained sodium phosphate, pH 7.4, 0.25% bovine serum albumin (BSA), 0.5% sodium azide and 3% PEG-8000 (polyethylene glycol). The primary antibody was from a guinea pig immunized against AP-III. The incubations were done overnight at 6° C. The next day, 2 ml of 0.125% BSA was added to each tube and then they were centrifuged for 45 min at 3000 rpm. They were decanted and the radioactivity was counted in a Micromedic gamma counter. The standard curve contained 10 to 600 pg AP-III/tube. Only the linear portion of the curve was used for quantification. Plasma samples were diluted so that the AP-III concentrations were in the range of the standard curve.

[3] = Plasma AP-III levels (radioimmunoassay) in rats, second test: varied AP-III infusion rate, constant thiorphan dose; assay type: in vivo, rat; settings: male, Sprague-Dawley, rat, in vivo, iv
Method: as §2, §3, §4, §5, §6
In the second test, the level of thiorphan was kept constant at 3 mg/kg and the rate of AP-III infusion was varied. AP-III was infused into the femoral vein for a total of 60 minutes at a rate of 150,450 and 900 ng/kg/min; another group of rats received only an infusion of dextrose/saline to determine if thiorphan affected the basal levels of AP-III. Blood was taken at 15 and 30 minutes after the start of the AP-III infusion to check for a steady state AP-III plasma concentration. After the 30 min sample, thiorphan (3 mg/kg) was injected arterially and additional blood samples were taken 15 and 30 min later (45 and 60 minutes after the start of the AP-III infusion).
as §7

[4] = (c) 40 μM AP-III, 20 μg RBBM, 100 nM inhibitor, 60 min, 25° C.
[5] = rabbit, kidney or brush border membranes

## C[C@H](NC(=O)[C@@H](CC(=O)NO)Cc1ccccc1)C(=O)O [(R,S) kelatorphan]
[1]; [4]
  Peak area as % Initial AP: AP: 16.5%
  Peak area as % Initial AP: AP + des Ser^1 -AP: 31.4%
  Peak area as % Initial AP: des Ser^1 -AP: 14.9%
[1]
  Effect of inhibitor on atrial peptide bioactivity during incubation with renal brush border membranes: inhibit the loss of atrial peptide bioactivity

## C[C@H](NC(=O)[C@H](CC(=O)NO)Cc1ccccc1)C(=O)O [(S,S) kelatorphan]
[1]; [4]
  Peak area as % Initial AP: AP: 17.2%
  Peak area as % Initial AP: AP + des Ser^1 -AP: 49.3%
  Peak area as % Initial AP: des Ser^1 -AP: 32.1%
[1]
  Effect of inhibitor on atrial peptide bioactivity during incubation with renal brush border membranes: inhibit the loss of atrial peptide bioactivity

## CC[C@H](C)[C@@H]1NC(=O)[C@H](CCCN=C(N)N)NC(=O)[C@H](CC(=O)O)NC(=O)[C@H]([C@@H](C)CC)NC(=O)[C@H](CCCN=C(N)N)NC(=O)CNC(=O)CNC(=O)[C@H](Cc2ccccc2)NC(=O)[C@@H](NC(=O)[C@H](CO)NC(=O)[C@@H](N)CO)CSSC[C@@H](C(=O)N[C@@H](CC(N)=O)C(=O)N[C@@H](CO)C(=O)N[C@@H](Cc2ccccc2)C(=O)N[C@@H](CCCN=C(N)N)C(=O)N[C@@H](Cc2ccc(O)cc2)C(=O)O)NC(=O)CNC(=O)[C@H](CC(C)C)NC(=O)CNC(=O)[C@H](CO)NC(=O)[C@H](CCC(N)=O)NC(=O)[C@H](C)NC(=O)CNC1=O [AP-III] (H-SSCFGGRIDRIGAQSGLGCNSFRY-OH; disulfide 3-19)
physchem; buffer or solvent
  remaining at 1 h, 40 μM: 100%
physchem; [5]
  remaining at 1 h, 40 μM: 3.3%
[1]; rabbit, kidney or brush border membranes, 1 h, 40 μM, pH 7.5
  Peak area as % Initial AP: AP: 2.1%
[2]; 833 ng/kg/min
  Plasma AP-III concentration, stable level during infusion: 9 to 11 ng/mL
  Plasma AP-III levels, constant level in control rats: 11 to 12 ng/mL
  level at 20 min: 9.6 ± 1.6 ng/mL
  level at 0.5 h: 10.8 ± 1.1 ng/mL
  level at 40 min: 11.2 ± 1.3 ng/mL
  level at 50 min: 11.3 ± 1.1 ng/mL
  level at 1 h: 11.7 ± 0.7 ng/mL
  level at 1.5 h: 10.6 ± 1.4 ng/mL
[2]; 1 mg/kg
  level at 20 min: 9.2 ± 2.4 ng/mL
  level at 0.5 h: 9.7 ± 1 ng/mL
[2]; 3 mg/kg
  level at 20 min: 10.1 ± 1.6 ng/mL
  level at 0.5 h: 11 ± 1.1 ng/mL
[2]; 10 mg/kg
  level at 20 min: 9.7 ± 2.4 ng/mL
  level at 0.5 h: 10.6 ± 2.9 ng/mL
[2]; 30 mg/kg
  level at 20 min: 9.2 ± 1.1 ng/mL
  level at 0.5 h: 8.8 ± 1 ng/mL
[3]; 150 ng/kg/min
  level at 0.25 h: 0.9 ± 0.2 ng/mL
  level at 0.5 h: 1 ± 0.6 ng/mL
[3]; 450 ng/kg/min
  level at 0.25 h: 4.2 ± 1 ng/mL
  level at 0.5 h: 4.5 ± 1.2 ng/mL
[3]; 900 ng/kg/min
  level at 0.25 h: 11.2 ± 3.5 ng/mL
  level at 0.5 h: 13.6 ± 1.8 ng/mL

## CC[C@H](C)[C@@H]1NC(=O)[C@H](CCCN=C(N)N)NC(=O)[C@H](CC(=O)O)NC(=O)[C@H]([C@@H](C)CC)NC(=O)[C@H](CCCN=C(N)N)NC(=O)CNC(=O)CNC(=O)[C@H](Cc2ccccc2)NC(=O)[C@@H](NC(=O)[C@H](CO)NC(=O)[C@@H](N)CO)CSSC[C@@H](C(=O)N[C@@H](CC(N)=O)C(=O)N[C@@H](CO)C(=O)O)NC(=O)CNC(=O)[C@H](CC(C)C)NC(=O)CNC(=O)[C@H](CO)NC(=O)[C@H](CCC(N)=O)NC(=O)[C@H](C)NC(=O)CNC1=O [AP-I] (H-SSCFGGRIDRIGAQSGLGCNS-OH; disulfide 3-19)
physchem; buffer or solvent
  remaining at 1 h, 40 μM: 100%
[1]
  Degradation of atrial peptide by proteolytic activity of renal brush border membranes: degraded

## CC[C@H](C)[C@@H]1NC(=O)[C@H](CCCNC(=N)N)NC(=O)[C@H](CC(=O)O)NC(=O)[C@H](CCSC)NC(=O)[C@H](CCCNC(=N)N)NC(=O)CNC(=O)CNC(=O)[C@H](Cc2ccccc2)NC(=O)[C@@H](NC(=O)[C@H](CO)NC(=O)[C@H](CO)NC(=O)[C@H](CCCNC(=N)N)NC(=O)[C@H](CCCNC(=N)N)NC(=O)[C@H](CC(C)C)NC(=O)[C@@H](N)CO)CSSC[C@@H](C(=O)N[C@@H](CC(N)=O)C(=O)N[C@@H](CO)C(=O)N[C@@H](Cc2ccccc2)C(=O)N[C@@H](CCCNC(=N)N)C(=O)N[C@@H](Cc2ccc(O)cc2)C(=O)O)NC(=O)CNC(=O)[C@H](CC(C)C)NC(=O)CNC(=O)[C@H](CO)NC(=O)[C@H](CCC(N)=O)NC(=O)[C@H](C)NC(=O)CNC1=O [SLRR(Met^8)AP-III]
physchem; buffer or solvent
  remaining at 1 h, 40 μM: 100%
physchem; [5]
  remaining at 1 h, 40 μM: 0%
[1]
  Degradation of atrial peptide by proteolytic activity of renal brush border membranes: degraded

## C[C@H](NC(=O)[C@@H](CC(=O)NO)Cc1ccccc1)C(=O)O [kelatorphan, [(R)-3-(N-hydroxy)carboxamido-2-benzylpropanoyl]-L-alanine]
[1]
  Effect of inhibitor on atrial peptide bioactivity during incubation with renal brush border membranes: substantially prolonged or enhanced
